Results published in patent publication US20200199647A1, “ASSAY FOR SCREENING MODULATORS OF HOLOPHOSPHATASE ACTIVITY” (UNITED KINGDOM RESEARCH AND INNOVATION, priority 2017, published 2020).
Each block holds one compound with its values, some of them ahead of it.

Tests used:
eIF2α = assay: Thermophoresis affinity measurement, binding to labelled P-eIF2α; set-up: species or system human
Description: Thermophoresis experiments were performed using a Monolith NT.115 instrument (NanoTemper Technologies). PP1c and P-eIF2α proteins were labeled using the Monolith NT Protein labelling Kit Red-NHS and stored for no longer than a month at −80° C. For thermophoresis, all protein dilutions were carried out in MST buffer (50 mM HEPES (pH 7.4), 100 mM NaCl, 0.1% Tween20, 2 mM MnCl2). Labelled proteins (100 nM) were mixed with equal volumes of serial dilutions of the unlabelled binding partner. In holophosphatase binding experiments, labelled P-eIF2 was diluted to 100 nM in MST buffer containing 10 μM regulatory subunit and then mixed as above with titrations of unlabelled PP1c. All experiments were carried out in enhanced grade capillaries, using 100% LED power and 100% IR-laser (on for 25 seconds (″)) at 20° C. NanoTemper Analysis 1.2.101 software was used to fit the data with a nonlinear solution of the law of mass action and KD values were determined. Each measurement was repeated in three independent experiments and KD values were averaged. Standard error of the mean (SEM) values are shown.

R15A-PP1c = biological target: T1, R15A-PP1c (Homo sapiens, UniProt O75807); assay: In vitro dephosphorylation of P-eIF2α by recombinant R15A-PP1c holophosphatase (10 nM PP1c); format: biochemical; conditions: PP1c 10 nM, 1 μM P-eIF2α, compounds 100 μM, 30° C., 16 h
T1 construct: PPP1R15A amino acids 325-636 (R15A); His6 (C); made in house; host or cells: E. coli BL21 pLysS (R15A, eIF2α); E. coli BL21/pGro7 (PP1c)
Description: (§1) PP1c was diluted to the appropriate concentration (as indicated in the figure legends) in dephosphorylation buffer immediately prior to use. Dephosphorylation reactions were carried out by pre-incubating diluted PP1c in the presence or absence of regulatory subunits (either […]), and/or compounds (all at 100 μM, except for Salubrinal which was used at 30 μM), for 15′ at RT. All compounds were diluted in DMSO, and DMSO vehicle was used in all control experiments.
(§2) The reaction was initiated by the addition of 1 μM P-eIF2α or ^33P Phosphorylase a substrates and then incubated at 30° C. for 16 h with shaking at 350 rpm. Reactions were stopped by addition of 4× Laemmli sample buffer. eIF2α samples were analyzed by immunoblotting or Phos-tag gels. […] Samples in FIG. 8 and FIG. 16 were run on a 15% SuperSep Phos-tag acrylamide gel (Alpha Laboratories) and visualized by staining with InstantBlue Protein Stain.

R15A [1] = biological target: T2, R15A (Homo sapiens, UniProt O75807); assay: Light scattering to monitor aggregation of R15A; conditions: 5 μM R15A, 10 min, 20° C.
T2 construct: PPP1R15A amino acids 325-636 (R15A); His6 (C); made in house; host or cells: E. coli BL21 pLysS
Description: Samples were incubated for 10 min at RT. […] Therefore, light scattering was measured at 380 nm emission, 380 nm absorption to monitor the presence of aggregates. For each sample, 100 data points were collected over a period of 10 min, at 20° C., with constant stirring.

R15B = biological target: T3, R15B (Homo sapiens, UniProt Q5SWA1); assay: Limited trypsin proteolysis of R15B (conformational change); conditions: 100 μM compound, 0.5 μM R15B, 2.5 nM trypsin, 30 min to 3 h, 22° C.
T3 construct: PPP1R15B amino acids 340-698 (R15B); His6 (C); made in house; host or cells: E. coli BL21 pLysS
T3 sequence (Q5SWA1 340-698): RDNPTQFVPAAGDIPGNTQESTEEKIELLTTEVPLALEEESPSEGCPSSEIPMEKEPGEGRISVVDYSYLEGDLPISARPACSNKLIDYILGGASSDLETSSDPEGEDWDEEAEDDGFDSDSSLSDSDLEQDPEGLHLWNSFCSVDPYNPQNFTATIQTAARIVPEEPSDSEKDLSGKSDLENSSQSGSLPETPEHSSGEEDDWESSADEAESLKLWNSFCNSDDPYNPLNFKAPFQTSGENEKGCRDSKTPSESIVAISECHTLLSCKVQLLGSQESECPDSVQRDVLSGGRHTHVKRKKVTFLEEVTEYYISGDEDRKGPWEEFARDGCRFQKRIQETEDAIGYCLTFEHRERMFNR
Description: (§3) Reactions were allowed to proceed at 22° C. with shaking at 350 rpm. At time points 30 min, 1 h, 2 h or 3 h, 30 μl of sample was removed from the mix and digestion was stopped by addition of 10 μl of 16% SDS Laemmli sample buffer. Samples were run on 4-12% NuPAGE Bis-Tris gels (Life Technologies). Proteins were visualised by staining with InstantBlue Coomassie Protein Stain (Expedeon) protein stain.
(§4) Purified R15A and R15B were diluted to 3 μM in PBS, and incubated for 15′ at RT with 100 μM Raphin1, or DMSO vehicle. Reactions were initiated by addition of 5 nM of trypsin from bovine pancreas (Sigma), made up in PBS, and allowed to proceed for 5′ at 22° C., with shaking at 350 rpm. Digestion was stopped by addition of 4× Laemmli sample buffer and samples were run on 4-12% NuPAGE Bis-Tris gels (Life Technologies). Proteins were visualised by staining with InstantBlue Protein Stain.

HeLa cells = assay: Cytoprotection of HeLa cells from Tunicamycin (ER) stress; format: cell-based; conditions: 250 ng/ml Tunicamycin, 72 h
Description: HeLa cells (40,000 cells/ml) were plated in a 96-well plate and treated with different concentrations of compound, as indicated, or DMSO vehicle in the presence of 250 ng/ml Tunicamycin for 72 h. To monitor cell death, 1/2000 dilution of the CellTox green dye (Promega) was added to the media. The growth of the cells was monitored over time and pictures taken every 2 h with the IncuCyte ZOOM system and analysed by the IncuCyte ZOOM software (Essen BioScience). To compare different compounds and their cytoprotective effect, a growth ratio for each time point was calculated:
Growth ratio=(Phase confluency (%) at X hours)/(Phase confluency (%) at 0 hours)
The end point of the assay (72 h) was chosen for generating the graphs.

R15B-PP1c = biological target: T4, R15B-PP1c (Homo sapiens, UniProt Q5SWA1); assay: In vitro dephosphorylation of P-eIF2α by recombinant R15B-PP1c holophosphatase (10 nM PP1c); format: biochemical; conditions: PP1c 10 nM, 1 μM P-eIF2α, compounds 100 μM, 30° C., 16 h
T4 construct: PPP1R15B amino acids 340-698 (R15B); His6 (C); made in house; host or cells: E. coli BL21 pLysS (R15B, eIF2α); E. coli BL21/pGro7 (PP1c)
Description: as §1
The reaction was initiated by the addition of 1 μM P-eIF2α or ^33P Phosphorylase a substrates and then incubated at 30° C. for 16 h with shaking at 350 rpm. Reactions were stopped by addition of 4× Laemmli sample buffer. eIF2α samples were analyzed by immunoblotting or Phos-tag gels. P-eIF2α dephosphorylation was analysed by immunoblotting using anti-Phospho-eIF2α (SerS1) (#9721) (Cell Signaling) and anti-eIF2α (ab26197) (AbCam) antibodies. Samples in FIG. 8 and FIG. 16 were run on a 15% SuperSep Phos-tag acrylamide gel (Alpha Laboratories) and visualized by staining with InstantBlue Protein Stain.

R15A [2] = biological target: T2, R15A; assay: Limited trypsin proteolysis of R15A (conformational change); conditions: 100 μM compound, 0.5 μM R15A, 2.5 nM trypsin, 30 min to 3 h, 22° C.
Description: as §3, §4

PP1c = biological target: T5, PP1c (Homo sapiens, UniProt P62136); assay: Dephosphorylation of P-eIF2α by increasing amounts of PP1c alone; format: biochemical; conditions: compound 100 μM, 30° C., 16 h
T5 construct: The cDNA encoding amino acids 7-330 of human PP1cα; made in house; host or cells: E. coli BL21/pGro7 (PP1c); E. coli BL21 pLysS (eIF2α)
Description: as §1, §2

T2 sequence (O75807 325-636, stated change not applied): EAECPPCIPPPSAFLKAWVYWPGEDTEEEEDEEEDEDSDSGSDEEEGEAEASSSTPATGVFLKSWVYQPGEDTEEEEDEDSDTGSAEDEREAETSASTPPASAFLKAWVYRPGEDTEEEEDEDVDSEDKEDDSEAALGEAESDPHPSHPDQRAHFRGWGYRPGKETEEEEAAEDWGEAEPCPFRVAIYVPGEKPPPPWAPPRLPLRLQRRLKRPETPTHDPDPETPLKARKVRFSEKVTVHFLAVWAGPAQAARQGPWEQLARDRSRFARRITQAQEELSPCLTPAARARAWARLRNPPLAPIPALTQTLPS
T1 sequence (O75807 325-636, stated change not applied): as above
T1 sequence (P62136 7-330 partner): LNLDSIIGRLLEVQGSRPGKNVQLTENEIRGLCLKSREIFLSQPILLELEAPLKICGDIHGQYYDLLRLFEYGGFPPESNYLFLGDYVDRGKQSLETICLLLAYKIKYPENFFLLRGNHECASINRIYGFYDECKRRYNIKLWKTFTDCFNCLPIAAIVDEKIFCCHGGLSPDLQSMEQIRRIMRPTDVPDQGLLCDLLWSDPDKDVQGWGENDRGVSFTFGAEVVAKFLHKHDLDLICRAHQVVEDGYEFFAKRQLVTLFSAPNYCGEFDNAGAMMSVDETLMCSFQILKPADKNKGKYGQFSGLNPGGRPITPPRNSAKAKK
T4 sequence (P62136 7-330 partner limits assumed, one chain of several): as the sequence (P62136 7-330 partner) above
T5 sequence (P62136 7-330): as the sequence (P62136 7-330 partner) above

affinity for eIF2α relative to isolated PP1c^D95A (eIF2α; 10 μM regulatory subunit): 3.0 times higher
Compound: R15B-PP1c^D95A: holophosphatase complex of R15B (PPP1R15B 340-698) with PP1c^D95A

Kd (eIF2α; 20° C.): ~650 nM
Compound: PP1c^D95A: catalytically inactive D95A mutant of human PP1cα (amino acids 7-330)

inhibition of R15A-PP1c eIF2α holophosphatase (R15A-PP1c): did not inhibit R15A-PP1 or R15B-PP1
aggregation of R15A (light scattering at 380 nm) (R15A [1]; 1 mM compound): No aggregation
sensitivity of R15B to trypsin proteolysis (R15B): did not alter the protease sensitivity
inhibition of R15B-PP1c eIF2α holophosphatase (R15B-PP1c): did not inhibit R15A-PP1 or R15B-PP1
sensitivity of R15A to trypsin proteolysis (R15A [2]): did not alter the protease sensitivity
Compound: N=C(N)N/N=C/c1ncccc1Cl [C3, (E)-2-((3-chloropyridin-2-yl)methylene)hydrazine-1-carboximidamide]
cytoprotection from ER stress (HeLa cells): inactive

aggregation of R15A (light scattering at 380 nm) (R15A [1]; 50 μM compound): induced robust aggregation
inhibition of PP1c alone (PP1c): inhibited PP1c
Compound: O=C(/C=C/c1ccccc1)NC(NC(=S)Nc1cccc2cccnc12)C(Cl)(Cl)Cl (stereo not shown) [Salubrinal]
